From US20190298715A1, “IMMUNE EFFECTOR CELL THERAPIES WITH ENHANCED EFFICACY” (Novartis AG, priority 2016, published 2019)

Assays:
[1] = biological target: T1, full-length LSD1 (Homo sapiens, UniProt O60341); test: FL-LSD1 LC-MS assay; format: biochemical; conditions: 0.4 nM FL-LSD1, 0.25 μM FAD, 0.5 μM H3K4me1 peptide, 60 min; read-out: LCMS IC50 (LSD1 IC50 as measured by LCMS)
T1 construct: the full-length LSD1 and 0.5 μM FAD in reaction buffer
Description: Representative compounds of the present disclosure were serially and separately diluted 3-fold in DMSO to obtain a total of twelve concentrations. […] A 5 μL solution of 1 μM of the peptide substrate H3K4me1 (histone H3[1-21]-biotin) in reaction buffer was added to each initiate reaction. […] The conversion ratio of H3K4me1 substrate to the H3K4me0 product was calculated by dividing the peak area of the H3K4me0 peptide by the total peak area of all those two peptides on the assumption that the ionization efficiency of those peptides is the same. The data were then fit to a dose response equation using the program Helios to get the IC50 values of the test compound.

[2] = test system: human T cells; test: T cell phenotype after anti-CD3/CD28 expansion with LSD1 shRNA (flow cytometry); format: cell-based; conditions: 10 days anti-CD3/CD28 expansion, transfected with DNA encoding shRNA
Description: Flow cytometry was performed on a four laser Fortessa (Becton-Dickinson).
Inhibition of LSD1 by shRNA promotes the expansion of TSCM cells T cells were isolated by negative selection and expanded with anti-CD3/CD28 beads at a 3:1 ratio for 10 days. On day 1, T cells were transduced with lentiviral expression vectors containing LSD1 shRNA targeting sequences that co-expressed the fluorescent protein mCherry. Following expansion, T cell phenotypes of mCherry+ T cells were assessed by flow cytometry.

Molecule	IC50 [1] [nM]	percentage of CD4+ T cells having the TSCM (CD45RA+CD62L+CCR7+CD27+CD95+) phenotype [2]	percentage of CD8+ T cells having the TSCM (CD45RA+CD62L+CCR7+CD27+CD95+) phenotype [2] [%]
CS(=O)(=O)c1ccc(-c2cc(-c3cc(C#N)c(N4CCNCC4)[nH]3)ccc2Cl)cc1 [5-(6-chloro-4′-(methylsulfonyl)biphenyl-3-yl)-2-(piperazin-1-yl)-1H-pyrrole-3-carbonitrile]	12	–	–
CN(C)C1CCN(S(=O)(=O)c2ccc(-n3ncc4c(-c5ccc(C6CCNCC6)cc5)cccc43)cc2)CC1 [N,N-dimethyl-1-((4-(4-(4-(piperidin-4-yl)phenyl)-1H-indazol-1-yl)phenyl)sulfonyl)piperidin-4-amine]	9	–	–
COc1ccc(-n2cc(-c3cccc(N)c3C)c3cc(C#N)c(C)cc32)cc1 [NVS Compound 2, 3-(3-amino-2-methylphenyl)-1-(4-methoxyphenyl)-6-methyl-1H-indole-5-carbonitrile]	5	–	–
LSD1 2: shRNA to LSD1, encoded by SEQ ID NO: 127 (DNA CAGAAGGCCTAGACATTAAACCTCGAGGTTTAATGTCTAGGCCTTCTGTTTTTTGA; the letters are possibly those of the target site)	–	enriched in TSCM	~50
LSD1 1A: shRNA to LSD1, encoded by SEQ ID NO: 125 (nucleic acid) DNA: CGGTTGCTAGAAGCTACATCTGTTAATATTCATAGCAGATGTAGCTTCTAGCAACCGTTTTTTGA	–	enriched in TSCM	~50
LSD1 1B: shRNA to LSD1, encoded by SEQ ID NO: 126 (nucleic acid, the letters are possibly those of the target site) DNA: CGGTTGCTAGAAGTTACATTTGTTAATATTCATAGCAGATGTAGCTTCTAGCAACCGTTTTTTGA	–	up to 20%	~50
